The source of these data is patent US9913830B2, “Materials and methods for modulating immune responses” (UNIVERSITY OF FLORIDA RESEARCH FOUNDATION, INCORPORATED, priority 2011, dated 2018).

One assay deals with NOD mice. Nature of the assay: Onset of diabetes in NOD mice, blood glucose monitoring. The assay is classed as in vivo. The note with it: 8-week old NOD mice, 65 mg/kg i.p., three times a week for five weeks, monotherapy. How it is done:
Briefly, 8-week old NOD mice are injected (i.p.) with various doses of cilostamide (low: 0.65 mg/kg, medium: 6.5 mg/kg, high: 65 mg/kg), or vehicle only. Cilostamide is administered three times a week for five weeks. The onset of diabetes in treated mice is monitored by blood glucose measurements. Diabetes is diagnosed if the blood glucose readings are greater than 240 mg/dl for two days.
The increase in level of FoxP3+ cells at an early stage of the autoimmune attack can be used to prevent or delay the onset of autoimmune disease. Briefly, 8-week old NOD mice are treated with various doses (low: 0.65 mg/kg; medium: 6.5 mg/kg; high: 65 mg/kg) of cilostamide via intraperitoneal (i.p.) injection. Cilostamide is administered to the mice three times a week for five weeks.

Another assay has as its system naïve human CD4+ T cells. Nature of the assay: FOXP3 induction in naïve CD4+ T cells, flow cytometry. The class given is cell-based. As to the method: Freshly isolated naïve (CD4+ CD25− CD127hi CD45RO−) T cells are cultured and treated with PDE3b and PDE4 inhibitors (middle panel) or rapamycin (positive control) (right panel), or are left untreated (left panel). CD25 and FOXP3 expression is measured by flow cytometry after 14 days of expansion.
Treatment of Tregs with small molecules that maintain high cAMP levels in T cells can be used to induce a regulatory phenotype. Small molecules that maintain high cAMP levels in T cells include agents that inhibit PDEs and agents that activate AC.
(Flow cytometry measures light scatter and fluorescence of single cells or particles in a stream.)

In the case of `CN(C(=O)CCCOc1ccc2[nH]c(=O)ccc2c1)C1CCCCC1` [cilostamide], in the assay on NOD mice, the onset of diabetes entry is recorded as “delayed the onset of diabetes”. For the same compound, the FOXP3 induction result in the assay on naïve human CD4+ T cells (naïve CD4+ CD25− CD45RO− T cells, 14 days of expansion, vs non-treated controls) is on record as “increased FOXP3 induction”. Also, the “ratio of FOXP3+ cells” value with naïve human CD4+ T cells (naïve CD4+ T cells, 14 days, vs rapamycin positive control) is given as “comparable to that of the rapamycin-treated group”.
